# Test results: ChEMBL document CHEMBL3046156, “Neoclerodane diterpenoids from Teucrium polium subsp. polium and their antifeedant activity” (2003)
# How the values were obtained:
# Spodoptera littoralis [1] = assay: Antifeedant activity against Spodoptera littoralis assessed as antifeedant index at 100 ppm by binary choice bioassay; assay type: functional
# Spodoptera littoralis [2] = assay: Antifeedant activity against Spodoptera littoralis by binary choice bioassay; assay type: functional
SMILES,AFI (Spodoptera littoralis [1]) [%],FI50 (Spodoptera littoralis [2]) [ppm]
CC(=O)OC[C@@]12C(=O)[C@H]3OC(=O)[C@@](C[C@H](OC(C)=O)c4ccoc4)(C1CCC[C@]21CO1)[C@@H]3C (stereo partly specified),6.9,230
CC(=O)OC[C@@]12C(=O)[C@H]3O[C@H](OC(C)=O)[C@](C[C@H](OC(C)=O)c4ccoc4)([C@@H]3C)[C@H]1CCC[C@]21CO1 [ACETYL-AUROPOLIN],57.8,90
CC(=O)OC[C@@]12C(=O)[C@H]3O[C@H](O)[C@](C[C@H](OC(C)=O)c4ccoc4)([C@@H]3C)[C@H]1CCC[C@]21CO1 [AUROPOLIN],17.8,–
CC(=O)OC[C@@]12C(=O)[C@@H](OC(C)=O)[C@@H](C)[C@]3(C[C@@H](c4ccoc4)OC3=O)[C@H]1CCC[C@]21CO1 [CAPITATIN],31,–
